Results on 33 molecules are retold here after patent US20130303509A1, “NAMPT INHIBITORS” (AbbVie Inc., priority 2012, published 2013).

SMILES strings stand for the structures.

The test system of the assay is PC3 cells. The experiment in a line: NAMPT Cell Proliferation Assay. It counts as cell-based. To be noted: Homo sapiens, PC-3, 120 h, 5 days incubation, cell viability by Cell Titer Glo. Put shortly:
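Seeded at 500 cells/well in RPMI with 10% heat-inactivated FBS and left to attach overnight at 37° C, 5% CO2. Compounds were added as 10-fold dilutions […] for 5 days, then viability was read by CellTiter-Glo. IC50s came from sigmoidal fits of percent inhibition.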
(In general: In ATP-based viability assays light output follows the ATP content of the culture.)
Turning to `CC(C)C(=O)N1CC[C@@H](Oc2ccc(NC(=O)C3CN(c4cccnn4)C3)cc2)C1` [Example 513, N-(4-{[(3R)-1-(2-methylpropanoyl)pyrrolidin-3-yl]oxy}phenyl)-1-(pyridazin-3-yl)azetidine-3-carboxamide], the IC50 (as a rule, the midpoint of a concentration-inhibition curve) amounted to 3.5 nM. This lies in the single-digit nanomolar range.
The value for `O=C(Nc1ccc(O[C@@H]2CCN(C(=O)c3ccccc3F)C2)cc1)C1CN(c2cccnn2)C1` [Example 514, N-(4-{[(3R)-1-(2-fluorobenzoyl)pyrrolidin-3-yl]oxy}phenyl)-1-(pyridazin-3-yl)azetidine-3-carboxamide] was 0.32 nM.
The value for `CCC(C)(C)C(=O)N1CC[C@@H](Oc2ccc(NC(=O)C3CN(c4cccnn4)C3)cc2)C1` [Example 515, N-(4-{[(3R)-1-(2,2-dimethylbutanoyl)pyrrolidin-3-yl]oxy}phenyl)-1-(pyridazin-3-yl)azetidine-3-carboxamide] was 0.85 nM; that for `O=C(Nc1ccc(O[C@@H]2CCN(C(=O)c3cc(F)cc(F)c3)C2)cc1)C1CN(c2cccnn2)C1` [Example 516, N-(4-{[(3R)-1-(3,5-difluorobenzoyl)pyrrolidin-3-yl]oxy}phenyl)-1-(pyridazin-3-yl)azetidine-3-carboxamide] was 2.26 nM.
As for `O=C(Nc1ccc(O[C@@H]2CCN(C(=O)c3ccc(C(F)(F)F)cc3)C2)cc1)C1CN(c2cccnn2)C1` [Example 517, 1-(pyridazin-3-yl)-N-[4-({(3R)-1-[4-(trifluoromethyl)benzoyl]pyrrolidin-3-yl}oxy)phenyl]azetidine-3-carboxamide], half-maximal inhibition (IC50) was put at 9.21 nM.
Take `O=C(Nc1ccc(O[C@@H]2CCN(C(=O)c3cccc(F)c3)C2)cc1)C1CN(c2cccnn2)C1` [Example 518, N-(4-{[(3R)-1-(3-fluorobenzoyl)pyrrolidin-3-yl]oxy}phenyl)-1-(pyridazin-3-yl)azetidine-3-carboxamide]: the IC50 worked out at 0.87 nM.
Regarding `O=C(Nc1ccc(O[C@@H]2CCN(C(=O)c3ccc(OC(F)(F)F)cc3)C2)cc1)C1CN(c2cccnn2)C1` [Example 519, 1-(pyridazin-3-yl)-N-[4-({(3R)-1-[4-(trifluoromethoxy)benzoyl]pyrrolidin-3-yl}oxy)phenyl]azetidine-3-carboxamide], the IC50 came to 3.21 nM.
The value for `CC(C)CC(=O)N1CC[C@@H](Oc2ccc(NC(=O)C3CN(c4cccnn4)C3)cc2)C1` [Example 520, N-(4-{[(3R)-1-(3-methylbutanoyl)pyrrolidin-3-yl]oxy}phenyl)-1-(pyridazin-3-yl)azetidine-3-carboxamide] was 0.47 nM.
The value for `O=C(Nc1ccc(O[C@@H]2CCN(C(=O)CC(F)(F)F)C2)cc1)C1CN(c2cccnn2)C1` [Example 521, 1-(pyridazin-3-yl)-N-(4-{[(3R)-1-(3,3,3-trifluoropropanoyl)pyrrolidin-3-yl]oxy}phenyl)azetidine-3-carboxamide] was 4.72 nM; that for `O=C(Nc1ccc(O[C@@H]2CCN(C(=O)C(F)(F)c3ccccc3)C2)cc1)C1CN(c2cccnn2)C1` [Example 522, N-[4-({(3R)-1-[difluoro(phenyl)acetyl]pyrrolidin-3-yl}oxy)phenyl]-1-(pyridazin-3-yl)azetidine-3-carboxamide] was 0.78 nM; that for `CC(C)(C)C(=O)N1CC[C@@H](Oc2ccc(NC(=O)C3CN(c4cccnn4)C3)cc2)C1` [Example 523, N-(4-{[(3R)-1-(2,2-dimethylpropanoyl)pyrrolidin-3-yl]oxy}phenyl)-1-(pyridazin-3-yl)azetidine-3-carboxamide] was 0.99 nM.
The value for `O=C(Nc1ccc(O[C@@H]2CCN(C(=O)C3CCC(F)(F)CC3)C2)cc1)C1CN(c2cccnn2)C1` [Example 524, N-[4-({(3R)-1-[(4,4-difluorocyclohexyl)carbonyl]pyrrolidin-3-yl}oxy)phenyl]-1-(pyridazin-3-yl)azetidine-3-carboxamide] was 5.73 nM; that for `O=C(Nc1ccc(C2CCN(C(=O)c3ccccc3Cl)CC2)cc1)C1CN(c2ccnnc2)C1` [Example 525, N-{4-[1-(2-chlorobenzoyl)piperidin-4-yl]phenyl}-1-(pyridazin-4-yl)azetidine-3-carboxamide] was 0.93 nM; that for `O=C(Nc1ccc(C2CCN(C(=O)c3nccs3)CC2)cc1)C1CN(c2ccnnc2)C1` [Example 526, 1-(pyridazin-4-yl)-N-{4-[1-(1,3-thiazol-2-ylcarbonyl)piperidin-4-yl]phenyl}azetidine-3-carboxamide] was 0.94 nM.
With `O=C(Nc1ccc(C2CCN(C(=O)CC3CC3)CC2)cc1)C1CN(c2ccnnc2)C1` [Example 527, N-{4-[1-(cyclopropylacetyl)piperidin-4-yl]phenyl}-1-(pyridazin-4-yl)azetidine-3-carboxamide], the IC50 worked out at 7.78 nM.
`CC(C)C(=O)N1CCC(c2ccc(NC(=O)C3CN(c4ccnnc4)C3)cc2)CC1` [Example 528, N-{4-[1-(2-methylpropanoyl)piperidin-4-yl]phenyl}-1-(pyridazin-4-yl)azetidine-3-carboxamide] returned an IC50 of 19.2 nM. This IC50 is about 2.5-fold higher than that of the molecule before.
Take `O=C(Nc1ccc(C2CCN(C(=O)c3ccc(F)cc3)CC2)cc1)C1CN(c2ccnnc2)C1` [Example 529, N-{4-[1-(4-fluorobenzoyl)piperidin-4-yl]phenyl}-1-(pyridazin-4-yl)azetidine-3-carboxamide]: the midpoint of inhibition, the IC50, lay at 9.33 nM.
Turning to `O=C(Nc1ccc(C2CCN(C(=O)c3ccsc3)CC2)cc1)C1CN(c2ccnnc2)C1` [Example 530, 1-(pyridazin-4-yl)-N-{4-[1-(thiophen-3-ylcarbonyl)piperidin-4-yl]phenyl}azetidine-3-carboxamide], the midpoint of inhibition, the IC50, lay at 2.02 nM.
Turning to `O=C(Nc1ccc(C2CCN(C(=O)Cc3ccc(F)cc3)CC2)cc1)C1CN(c2ccnnc2)C1` [Example 531, N-(4-{1-[(4-fluorophenyl)acetyl]piperidin-4-yl}phenyl)-1-(pyridazin-4-yl)azetidine-3-carboxamide], half-maximal inhibition (IC50) required 17.6 nM.
`O=C(Nc1ccc(C2CCN(C(=O)Cc3cc(F)cc(F)c3)CC2)cc1)C1CN(c2ccnnc2)C1` [Example 532, N-(4-{1-[(3,5-difluorophenyl)acetyl]piperidin-4-yl}phenyl)-1-(pyridazin-4-yl)azetidine-3-carboxamide] registered an IC50 of 7.24 nM.
In turn, `O=C(Nc1ccc(C2CCN(C(=O)c3ccc(F)c(F)c3)CC2)cc1)C1CN(c2ccnnc2)C1` [Example 533, N-{4-[1-(3,4-difluorobenzoyl)piperidin-4-yl]phenyl}-1-(pyridazin-4-yl)azetidine-3-carboxamide] returned an IC50 of 24.6 nM. This IC50 lies about 3.4-fold higher than the previous one.
In turn, `O=C(Nc1ccc(C2CCN(C(=O)Cc3cccc(F)c3)CC2)cc1)C1CN(c2ccnnc2)C1` [Example 534, N-(4-{1-[(3-fluorophenyl)acetyl]piperidin-4-yl}phenyl)-1-(pyridazin-4-yl)azetidine-3-carboxamide] registered an IC50 of 5.46 nM.
`O=C(Nc1ccc(C2CCN(C(=O)c3cccc(C(F)(F)F)c3)CC2)cc1)C1CN(c2ccnnc2)C1` [Example 535, 1-(pyridazin-4-yl)-N-(4-{1-[3-(trifluoromethyl)benzoyl]piperidin-4-yl}phenyl)azetidine-3-carboxamide] displayed an IC50 of 9.39 nM.
Consider `O=C(Nc1ccc(C2CCN(C(=O)Cc3ccc(F)cc3F)CC2)cc1)C1CN(c2ccnnc2)C1` [Example 536, N-(4-{1-[(2,4-difluorophenyl)acetyl]piperidin-4-yl}phenyl)-1-(pyridazin-4-yl)azetidine-3-carboxamide], for which the IC50 was 6.14 nM.
`O=C(Nc1ccc(C2CCN(C(=O)c3cscn3)CC2)cc1)C1CN(c2ccnnc2)C1` [Example 537, 1-(pyridazin-4-yl)-N-{4-[1-(1,3-thiazol-4-ylcarbonyl)piperidin-4-yl]phenyl}azetidine-3-carboxamide]: 3.3 nM corresponded to half-maximal inhibition (IC50). Against the preceding molecule, the IC50 is about 1.9-fold lower.
In turn, `O=C(Nc1ccc(C2CCN(C(=O)C3CCCO3)CC2)cc1)C1CN(c2ccnnc2)C1` (stereo not drawn) [Example 538, 1-(pyridazin-4-yl)-N-{4-[1-(tetrahydrofuran-2-ylcarbonyl)piperidin-4-yl]phenyl}azetidine-3-carboxamide] showed an IC50 of 13.7 nM.
In turn, `Cc1ccc(C(=O)N2CCC(c3ccc(NC(=O)C4CN(c5ccnnc5)C4)cc3)CC2)s1` [Example 539, N-(4-{1-[(5-methylthiophen-2-yl)carbonyl]piperidin-4-yl}phenyl)-1-(pyridazin-4-yl)azetidine-3-carboxamide] registered an IC50 of 2.57 nM. This IC50 is about 5.3-fold lower than that of the molecule before.
The value for `O=C(Nc1ccc(C2CCN(C(=O)Cc3ccccc3F)CC2)cc1)C1CN(c2ccnnc2)C1` [Example 540, N-(4-{1-[(2-fluorophenyl)acetyl]piperidin-4-yl}phenyl)-1-(pyridazin-4-yl)azetidine-3-carboxamide] was 3.91 nM; that for `O=C(Nc1ccc(C2CCN(C(=O)C3CC3)CC2)cc1)C1CN(c2ccnnc2)C1` [Example 541, N-{4-[1-(cyclopropylcarbonyl)piperidin-4-yl]phenyl}-1-(pyridazin-4-yl)azetidine-3-carboxamide] was 4.2 nM.
As for `O=C(Nc1ccc(C2CCN(C(=O)C3CCOC3)CC2)cc1)C1CN(c2ccnnc2)C1` (stereo not drawn) [Example 542, 1-(pyridazin-4-yl)-N-{4-[1-(tetrahydrofuran-3-ylcarbonyl)piperidin-4-yl]phenyl}azetidine-3-carboxamide], the IC50 was determined as 67.6 nM.
For `O=C(Nc1ccc(C2CCN(C(=O)c3ccccn3)CC2)cc1)C1CN(c2ccnnc2)C1` [Example 543, 1-(pyridazin-4-yl)-N-{4-[1-(pyridin-2-ylcarbonyl)piperidin-4-yl]phenyl}azetidine-3-carboxamide], the IC50 was found to be 7.7 nM.
On to `O=C(Nc1ccc(C2CCN(C(=O)c3cccc(Cl)c3)CC2)cc1)C1CN(c2ccnnc2)C1` [Example 544, N-{4-[1-(3-chlorobenzoyl)piperidin-4-yl]phenyl}-1-(pyridazin-4-yl)azetidine-3-carboxamide], for which half-maximal inhibition (IC50) was put at 7.17 nM. This IC50 and that of the molecule before are within 1.5-fold of each other.
The molecule `O=C(Nc1ccc(C2CCN(C(=O)c3ccc(Cl)cc3)CC2)cc1)C1CN(c2ccnnc2)C1` [Example 545, N-{4-[1-(4-chlorobenzoyl)piperidin-4-yl]phenyl}-1-(pyridazin-4-yl)azetidine-3-carboxamide] displayed an IC50 of 15.2 nM.
